{"source": "patent US20250312469A1", "about": "(CANGET BIOTEKPHARMA, priority 2024, published 2025)", "key": {"UbE2T": {"biological_target": "T1, UbE2T (Homo sapiens, UniProt Q9NPD8)", "T1 sequence (Q9NPD8 1-197)": "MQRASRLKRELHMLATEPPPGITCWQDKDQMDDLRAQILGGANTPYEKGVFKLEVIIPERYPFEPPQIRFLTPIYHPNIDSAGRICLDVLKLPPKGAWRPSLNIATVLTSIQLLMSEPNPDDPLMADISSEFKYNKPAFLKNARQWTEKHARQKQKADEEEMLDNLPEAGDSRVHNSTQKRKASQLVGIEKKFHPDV", "assay": "3H-FL118 binding, Nanosep 3K centrifugal device", "parameters": "host or cells: HEK293T", "conditions": "hot FL118 solution 10 μM", "procedure": "(§1) Then, 5-10 μg of the FLAGR M Purification Kit (Signa)-purified Flag-USP2a and Flag-UbE2T proteins in a volume of 20-50 μL, respectively, was transferred into the sample reservoir of a 1.5 mL Nanosep 3K Centrifugal Device. In parallel, a negative control Nanosep 3K Centrifugal Devices containing 10 μg bovine serum albumin (BSA) in 50 μL volume was also set up. Then, the 3 prepared Nanosep 3K Devices were centrifuged at 10,000 rpm for 10-15 min to eliminate the solution and retain the proteins in the sample reservoir. […] Lastly, all three of the sample reservoir devices were transferred into a scintillation vial containing enough scintillation solution to cover the entire sample reservoir devices for tritium (3H) counting on the LS 6500 Scintillation System (Backman Couler™)."}, "USP2a": {"biological_target": "T2, USP2a (Homo sapiens, UniProt O75604)", "T2 sequence (O75604 1-605)": "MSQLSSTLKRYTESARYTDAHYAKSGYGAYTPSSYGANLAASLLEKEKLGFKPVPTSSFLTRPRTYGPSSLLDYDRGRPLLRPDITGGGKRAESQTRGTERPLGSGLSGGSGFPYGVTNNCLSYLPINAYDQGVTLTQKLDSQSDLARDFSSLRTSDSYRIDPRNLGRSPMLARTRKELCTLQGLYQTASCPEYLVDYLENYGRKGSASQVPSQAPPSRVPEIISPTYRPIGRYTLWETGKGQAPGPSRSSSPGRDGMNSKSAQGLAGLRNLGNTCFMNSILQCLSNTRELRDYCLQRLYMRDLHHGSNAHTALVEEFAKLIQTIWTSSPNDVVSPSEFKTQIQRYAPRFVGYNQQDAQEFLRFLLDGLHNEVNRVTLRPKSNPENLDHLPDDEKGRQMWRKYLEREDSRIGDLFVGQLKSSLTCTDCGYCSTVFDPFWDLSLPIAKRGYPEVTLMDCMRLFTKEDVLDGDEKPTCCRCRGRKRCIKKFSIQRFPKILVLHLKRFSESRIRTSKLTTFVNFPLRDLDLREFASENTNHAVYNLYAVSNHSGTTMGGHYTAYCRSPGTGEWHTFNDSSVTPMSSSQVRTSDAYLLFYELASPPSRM", "assay": "3H-FL118 binding, Nanosep 3K centrifugal device", "parameters": "host or cells: HEK293T", "procedure": "as §1"}}, "data": [{"smiles": "CCC1(O)C(=O)OCc2c1cc1n(c2=O)Cc2cc3cc4c(cc3nc2-1)OCO4", "note": "(stereo not drawn) [FL118]", "values": [{"measurement": "3H CPM counts in retained parts", "setting": "UbE2T", "result": "52,382 ± 1930 CPM"}, {"measurement": "binding of 3H-FL118 to USP2a and UbE2T versus BSA", "setting": "USP2a; 3H counts per min", "result": "10-20 fold"}, {"measurement": "3H CPM counts in retained parts", "setting": "USP2a; hot FL118 solution 10 μM", "result": "97,436 ± 2960 CPM"}]}]}
